Source: PubChem BioAssay (NCI)
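These data come from cells grown in 96-well plates and exposed to compound for 48 hours at five concentrations. TGI: concentration producing complete growth inhibition.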

Tests used:
Assay in all cases: inhibition of tumour cell growth, NCI panel, 48 h
786-0 renal = system: 786-0 renal
A549 NSCLC = system: A549 NSCLC
BT-549 breast = system: BT-549 breast
CAKI-1 renal = system: CAKI-1 renal
COLO 205 colon = system: COLO 205 colon
HCC-2998 colon = system: HCC-2998 colon
HCT-116 colon = system: HCT-116 colon
KM12 colon = system: KM12 colon
LOX IMVI melanoma = system: LOX IMVI melanoma
MALME-3M melanoma = system: MALME-3M melanoma
MDA-MB-231 breast = system: MDA-MB-231 breast
NCI-H23 lung = system: NCI-H23 lung
NCI-H460 lung = system: NCI-H460 lung
PC-3 prostate = system: PC-3 prostate
RXF 393 renal = system: RXF 393 renal
SK-MEL-2 melanoma = system: SK-MEL-2 melanoma
SNB-75 CNS = system: SNB-75 CNS
TK-10 renal = system: TK-10 renal
UACC-257 melanoma = system: UACC-257 melanoma
SR leukemia = system: SR leukemia

With `CN(CCNC(=O)c1nn(-c2ccccc2)c2c1Cc1ccccc1-2)CCNC(=O)c1nn(-c2ccccc2)c2c1Cc1ccccc1-2` the TGI (786-0 renal) was 3.08 µM, the TGI (A549 NSCLC) was 4.93 µM and the TGI (BT-549 breast) was 18.7 µM. The TGI (CAKI-1 renal) was 7.28 µM, the TGI (COLO 205 colon) was 3.32 µM and the TGI (HCC-2998 colon) was 3.13 µM. The TGI (HCT-116 colon) was 3.13 µM, the TGI (KM12 colon) was 3.69 µM and the TGI (LOX IMVI melanoma) was 3.32 µM. The TGI (MALME-3M melanoma) was 3.34 µM, the TGI (MDA-MB-231 breast) was 3.39 µM and the TGI (NCI-H23 lung) was 3.7 µM. It also gave a TGI (NCI-H460 lung) of 3.15 µM, a TGI (PC-3 prostate) of 4.81 µM and a TGI (RXF 393 renal) of 3.07 µM. It also gave a TGI (SK-MEL-2 melanoma) of 3.38 µM, a TGI (SNB-75 CNS) of 3.5 µM and a TGI (TK-10 renal) of 4.3 µM. It also gave a TGI (UACC-257 melanoma) of 3.42 µM.
Compound `CC(Cc1ccccc1)Nc1ncnc2c1ncn2C1OC(CO)CC1O` (centres undefined) has a TGI (786-0 renal) of over 100 µM, a TGI (A549 NSCLC) of over 100 µM and a TGI (BT-549 breast) of over 100 µM. The TGI (CAKI-1 renal) was over 100 µM, the TGI (COLO 205 colon) was over 100 µM and the TGI (HCC-2998 colon) was over 100 µM. It also gave a TGI (HCT-116 colon) of over 100 µM, a TGI (KM12 colon) of over 100 µM and a TGI (LOX IMVI melanoma) of over 100 µM. For the same compound, the TGI (MALME-3M melanoma) was over 100 µM, the TGI (MDA-MB-231 breast) was over 100 µM and the TGI (NCI-H23 lung) was over 100 µM. The TGI (NCI-H460 lung) was over 100 µM, the TGI (PC-3 prostate) was over 100 µM and the TGI (RXF 393 renal) was over 100 µM. The TGI (SK-MEL-2 melanoma) was over 100 µM, the TGI (SNB-75 CNS) was over 100 µM and the TGI (TK-10 renal) was over 100 µM. It also gave a TGI (UACC-257 melanoma) of over 100 µM.
In the case of `COc1cc(C2=C(c3cc(OC)c4ccccc4c3OC)C(=O)c3ccccc3C2=O)c(OC)c2ccccc12`, the TGI (786-0 renal) is reported as over 100 µM, the TGI (A549 NSCLC) is reported as over 100 µM and the TGI (BT-549 breast) is reported as over 100 µM. The TGI (CAKI-1 renal) was over 100 µM, the TGI (COLO 205 colon) was over 100 µM and the TGI (HCT-116 colon) was over 100 µM. It also gave a TGI (KM12 colon) of over 100 µM, a TGI (LOX IMVI melanoma) of over 100 µM and a TGI (MALME-3M melanoma) of over 100 µM. It also gave a TGI (NCI-H23 lung) of over 100 µM, a TGI (NCI-H460 lung) of over 100 µM and a TGI (PC-3 prostate) of over 100 µM. For the same compound, the TGI (RXF 393 renal) was over 100 µM, the TGI (SK-MEL-2 melanoma) was over 100 µM and the TGI (SNB-75 CNS) was over 100 µM. The TGI (SR leukemia) was over 100 µM, the TGI (TK-10 renal) was over 100 µM and the TGI (UACC-257 melanoma) was over 100 µM.
For `CC12O[C@]3([C@H](C(=O)N4CCOC43C)[C@H]1Cl)[C@H]1O[C@H]12` (some centres undefined), the TGI (786-0 renal) was over 100 µM, the TGI (A549 NSCLC) was over 100 µM and the TGI (BT-549 breast) was over 100 µM. The TGI (CAKI-1 renal) was over 100 µM, the TGI (COLO 205 colon) was 91.9 µM and the TGI (HCC-2998 colon) was over 100 µM. The TGI (HCT-116 colon) was over 100 µM, the TGI (KM12 colon) was over 100 µM and the TGI (LOX IMVI melanoma) was over 100 µM. It also gave a TGI (MDA-MB-231 breast) of over 100 µM, a TGI (NCI-H460 lung) of over 100 µM and a TGI (PC-3 prostate) of over 100 µM. It also gave a TGI (SK-MEL-2 melanoma) of over 100 µM, a TGI (SNB-75 CNS) of over 100 µM and a TGI (SR leukemia) of over 100 µM. It also gave a TGI (TK-10 renal) of over 100 µM and a TGI (UACC-257 melanoma) of over 100 µM.
`CN1CN(c2ccccc2)C2(CCN(Cc3csc4ccccc34)CC2)C1=O` was tested, and the TGI (786-0 renal) was over 100 µM, the TGI (A549 NSCLC) was 74 µM and the TGI (BT-549 breast) was 20.5 µM. For the same compound, the TGI (CAKI-1 renal) was over 100 µM, the TGI (COLO 205 colon) was 30.2 µM and the TGI (HCC-2998 colon) was 42.5 µM. It also gave a TGI (HCT-116 colon) of 19.2 µM, a TGI (KM12 colon) of 26.8 µM and a TGI (LOX IMVI melanoma) of 25.2 µM. It also gave a TGI (MALME-3M melanoma) of 45.5 µM, a TGI (NCI-H23 lung) of 80.4 µM and a TGI (PC-3 prostate) of 43 µM. The TGI (RXF 393 renal) was 35.2 µM, the TGI (SNB-75 CNS) was over 100 µM and the TGI (SR leukemia) was 23.2 µM. It also gave a TGI (TK-10 renal) of 41.2 µM and a TGI (UACC-257 melanoma) of 31.9 µM.
`O=NN1C(c2ccccc2)CC(=NO)CC1c1ccccc1` (centres undefined) gave a TGI (786-0 renal) of over 100 µM, a TGI (A549 NSCLC) of over 100 µM and a TGI (BT-549 breast) of over 100 µM. For the same compound, the TGI (CAKI-1 renal) was over 100 µM, the TGI (COLO 205 colon) was over 100 µM and the TGI (HCC-2998 colon) was over 100 µM. For the same compound, the TGI (HCT-116 colon) was over 100 µM, the TGI (KM12 colon) was over 100 µM and the TGI (LOX IMVI melanoma) was over 100 µM. It also gave a TGI (MALME-3M melanoma) of over 100 µM, a TGI (MDA-MB-231 breast) of over 100 µM and a TGI (NCI-H23 lung) of over 100 µM. It also gave a TGI (NCI-H460 lung) of over 100 µM, a TGI (PC-3 prostate) of over 100 µM and a TGI (RXF 393 renal) of over 100 µM. For the same compound, the TGI (SK-MEL-2 melanoma) was over 100 µM, the TGI (SNB-75 CNS) was over 100 µM and the TGI (TK-10 renal) was over 100 µM. It also gave a TGI (UACC-257 melanoma) of over 100 µM.
